These results are taken from patent US20240285621A1, “PYRAZOLYL-PYRIMIDINE DERIVATIVES AS KINASE INHIBITORS” (NERVIANO MEDICAL SCIENCES S.R.L., priority 2020, published 2024).

SMILES strings stand for the structures. Counter-ions that a name gives are not always drawn.

The test has as its target T1, SYK (Homo sapiens, UniProt P43405).
T1 construct: Recombinant proteins SYK FL was produced at NMS via baculo virus infection in insect cells; His; GST; made in house; host or cells: insect cells (baculovirus)
Description: Biochemical kinase inhibition assay on SYK, KinaseGlo assay format. Conditions: Table A; KinaseGlo format, pre-activated SYK 2.5 nM, ATP 2.5 μM, substrate BioDBn*327 125 uM, 60 minutes at rt; read-out: IC50 (μM) Kglo. In general terms: Kinase-Glo measures the ATP left after a reaction by luminescence.
As usually defined, the IC50 is the midpoint of a concentration-inhibition curve. On to `Cc1cc(C)cc(Nc2nccc(-c3cc(C(=O)NC(C)C)n(C)n3)n2)c1` [Example 4, 3-{2-[(3,5-dimethylphenyl)amino]pyrimidin-4-yl}-1-methyl-N-(propan-2-yl)-1H-pyrazole-5-carboxamide], for which the IC50 was 0.111 µM.
For `Cc1cc(C)cc(Nc2nccc(-c3cc(C(=O)N(C)CCN(C)C)n(C)n3)n2)c1` [Example 5, N-[2-(dimethylamino)ethyl]-3-{2-[(3,5-dimethylphenyl)amino]pyrimidin-4-yl}-N,1-dimethyl-1H-pyrazole-5-carboxamide] the value was 0.084 µM.
Regarding `Cc1cc(C)cc(Nc2nccc(-c3cc(C(=O)NC4CNC4)n(C)n3)n2)c1` [Example 8, N-(azetidin-3-yl)-3-{2-[(3,5-dimethylphenyl)amino]pyrimidin-4-yl}-1-methyl-1H-pyrazole-5-carboxamide trifluoroacetate], the IC50 turned out to be 0.282 µM.
The same measure for `Cc1cc(C)cc(Nc2nccc(-c3cc(C(=O)NCCN4CCOCC4)n(C)n3)n2)c1` [Example 9, 3-{2-[(3,5-dimethylphenyl)amino]pyrimidin-4-yl}-1-methyl-N-[2-(morpholin-4-yl)ethyl]-1H-pyrazole-5-carboxamide]: 0.398 µM; for `Cc1cc(C)cc(Nc2nccc(-c3cc(C(=O)NCCNC(C)C)n(C)n3)n2)c1` [Example 12, 3-{2-[(3,5-dimethylphenyl)amino]pyrimidin-4-yl}-1-methyl-N-[2-(propan-2-ylamino)ethyl]-1H-pyrazole-5-carboxamide hydrochloride]: 0.398 µM.
The same measure for `Cc1cc(C)cc(Nc2nccc(-c3cc(C(N)=O)n(C)n3)n2)c1` [Example 13, 3-{2-[(3,5-dimethylphenyl)amino]pyrimidin-4-yl}-1-methyl-1H-pyrazole-5-carboxamide]: 0.226 µM; for `Cc1cc(C)cc(Nc2nccc(-c3cc(C(=O)N(C)C)n(C)n3)n2)c1` [Example 15, 3-{2-[(3,5-dimethylphenyl)amino]pyrimidin-4-yl}-N,N,1-trimethyl-1H-pyrazole-5-carboxamide]: 0.358 µM; for `COCCNC(=O)c1cc(-c2ccnc(Nc3cc(C)cc(C)c3)n2)nn1C` [Example 16, 3-{2-[(3,5-dimethylphenyl)amino]pyrimidin-4-yl}-N-(2-methoxyethyl)-1-methyl-1H-pyrazole-5-carboxamide]: 0.272 µM.
For `Cc1cc(C)cc(Nc2nccc(-c3cc(C(=O)NCCF)n(C)n3)n2)c1` [Example 17, 3-{2-[(3,5-dimethylphenyl)amino]pyrimidin-4-yl}-N-(2-fluoroethyl)-1-methyl-1H-pyrazole-5-carboxamide] the value was 0.06 µM; for `CN(C)CCNC(=O)c1cc(-c2ccnc(Nc3cc(C(F)(F)F)cc(C(F)(F)F)c3)n2)nn1C` [Example 18, 3-(2-{[3,5-bis(trifluoromethyl)phenyl]amino}pyrimidin-4-yl)-N-[2-(dimethylamino)ethyl]-1-methyl-1H-pyrazole-5-carboxamide hydrochloride], 0.491 µM; for `C[C@@H](CO)NC(=O)c1cc(-c2ccnc(Nc3cc(C(F)(F)F)cc(C(F)(F)F)c3)n2)nn1C` [Example 19, 3-(2-{[3,5-bis(trifluoromethyl)phenyl]amino}pyrimidin-4-yl)-N-[(2S)-1-hydroxypropan-2-yl]-1-methyl-1H-pyrazole-5-carboxamide], 0.104 µM.
As for `Cc1cc(C)cc(Nc2nccc(-c3cc(C(=O)Nc4cc[nH]n4)n(C)n3)n2)c1` [Example 20, 3-{2-[(3,5-dimethylphenyl)amino]pyrimidin-4-yl}-1-methyl-N-(1H-pyrazol-3-yl)-1H-pyrazole-5-carboxamide], the IC50 was 0.109 µM.
The same measure for `Cc1cc(C)cc(Nc2nccc(-c3cc(C(=O)N4CCN(C)CC4)n(C)n3)n2)c1` [Example 21, (3-{2-[(3,5-dimethylphenyl)amino]pyrimidin-4-yl}-1-methyl-1H-pyrazol-5-yl)(4-methylpiperazin-1-yl)methanone]: 0.238 µM.
As for `Cc1cc(C)cc(Nc2nccc(-c3cc(C(=O)NCc4cncn4C)n(C)n3)n2)c1` [Example 25, 3-{2-[(3,5-dimethylphenyl)amino]pyrimidin-4-yl}-1-methyl-N-[(1-methyl-1H-imidazol-5-yl)methyl]-1H-pyrazole-5-carboxamide], the IC50 amounted to 0.249 µM.
For `Cc1cc(C)cc(Nc2nccc(-c3cc(C(=O)NC4CN5CCC4CC5)n(C)n3)n2)c1` (stereo not shown) [Example 31, N-(1-azabicyclo[2.2.2]oct-3-yl)-3-{2-[(3,5-dimethylphenyl)amino]pyrimidin-4-yl}-1-methyl-1H-pyrazole-5-carboxamide] the value was 0.139 µM; for `Cc1cc(C)cc(Nc2nccc(-c3cc(C(=O)N[C@@H]4CCCC[C@H]4O)n(C)n3)n2)c1` [Example 32, 5-[2-(3,5-Dimethyl-phenylamino)-pyrimidin-4-yl]-2-methyl-2H-pyrazole-3-carboxylic acid ((1R,2R)-2-hydroxy-cyclohexyl)-amide], 0.074 µM.
Regarding `Cc1cc(C)cc(Nc2nccc(-c3cc(C(=O)N4CCNCC4)n(C)n3)n2)c1` [Example 36, (3-{2-[(3,5-dimethylphenyl)amino]pyrimidin-4-yl}-1-methyl-1H-pyrazol-5-yl)(piperazin-1-yl)methanone hydrochloride], the IC50 was 0.169 µM.
For `COc1cc(Nc2nccc(-c3cc(C(=O)N[C@H]4CCCC[C@H]4N)n(C)n3)n2)cc(C(F)(F)F)c1` [Example 37, N-[(1S,2R)-2-aminocyclohexyl]-3-(2-{[3-methoxy-5-(trifluoromethyl)phenyl]amino}pyrimidin-4-yl)-1-methyl-1H-pyrazole-5-carboxamide hydrochloride] the value was 0.009 µM; for `Cn1nc(-c2ccnc(Nc3ccc4c(c3)c(Cl)cn4C)n2)cc1C(=O)N[C@H]1CCCC[C@H]1N` [Example 38, N-[(1S,2R)-2-aminocyclohexyl]-3-{2-[(3-chloro-1-methyl-1H-indol-5-yl)amino]pyrimidin-4-yl}-1-methyl-1H-pyrazole-5-carboxamide hydrochloride], 0.005 µM; for `Cc1cccc(Nc2nccc(-c3cc(C(=O)N[C@H](CO)C(C)C)n(C)n3)n2)c1` [Example 41, N-[(2S)-1-hydroxy-3-methylbutan-2-yl]-1-methyl-3-{2-[(3-methylphenyl)amino]pyrimidin-4-yl}-1H-pyrazole-5-carboxamide], 0.077 µM.
For `Cc1cc(C)cc(Nc2nccc(-c3cc(C(=O)N[C@@H](C)C(F)(F)F)n(C)n3)n2)c1` [Example 42, 3-{2-[(3,5-dimethylphenyl)amino]pyrimidin-4-yl}-1-methyl-N-[(2S)-1,1,1-trifluoropropan-2-yl]-1H-pyrazole-5-carboxamide] the value was 0.474 µM; for `Cc1cc(C)cc(Nc2nccc(-c3cc(C(=O)NCC(C)(C)C)n(C)n3)n2)c1` [Example 45, 3-{2-[(3,5-dimethylphenyl)amino]pyrimidin-4-yl}-N-(2,2-dimethylpropyl)-1-methyl-1H-pyrazole-5-carboxamide], 0.065 µM; for `Cc1cc(C)cc(Nc2nccc(-c3cc(C(=O)NCC(C)C)n(C)n3)n2)c1` [Example 46, 3-{2-[(3,5-dimethylphenyl)amino]pyrimidin-4-yl}-1-methyl-N-(2-methylpropyl)-1H-pyrazole-5-carboxamide], 0.049 µM.
On to `Cc1cc(C)cc(Nc2nccc(-c3cc(C(=O)NCC4CC4)n(C)n3)n2)c1` [Example 47, N-(cyclopropylmethyl)-3-{2-[(3,5-dimethylphenyl)amino]pyrimidin-4-yl}-1-methyl-1H-pyrazole-5-carboxamide], for which the IC50 worked out at 0.04 µM.
The same measure for `Cc1cccc(Nc2nccc(-c3cc(C(=O)N[C@H]4CCCC[C@@H]4N)n(C)n3)n2)c1` [Example 53, N-[(1S,2S)-2-aminocyclohexyl]-1-methyl-3-{2-[(3-methylphenyl)amino]pyrimidin-4-yl}-1H-pyrazole-5-carboxamide]: 0.015 µM; for `CC[C@H](NC(=O)c1cc(-c2ccnc(Nc3cc(C)cc(C)c3)n2)nn1C)C(F)(F)F` [Example 55, 3-{2-[(3,5-dimethylphenyl)amino]pyrimidin-4-yl}-1-methyl-N-[(2S)-1,1,1-trifluorobutan-2-yl]-1H-pyrazole-5-carboxamide]: 0.324 µM.
The same measure for `CC[C@@H](NC(=O)c1cc(-c2ccnc(Nc3cc(C)cc(C)c3)n2)nn1C)C(F)(F)F` [Example 56, 3-{2-[(3,5-dimethylphenyl)amino]pyrimidin-4-yl}-1-methyl-N-[(2R)-1,1,1-trifluorobutan-2-yl]-1H-pyrazole-5-carboxamide]: 0.081 µM.
For `COc1cc(Nc2nccc(-c3cc(C(=O)N[C@@H](C)CN4CCCC4)n(C)n3)n2)cc(OC)c1OC` [Example 58, 1-methyl-N-[(2S)-1-(pyrrolidin-1-yl)propan-2-yl]-3-{2-[(3,4,5-trimethoxyphenyl)amino]pyrimidin-4-yl}-1H-pyrazole-5-carboxamide] the value was 0.059 µM.
In the case of `C[C@@H](CN1CCC1)NC(=O)c1cc(-c2ccnc(Nc3ccc4c(c3)c(Cl)cn4C)n2)nn1C` [Example 59, N-[(2S)-1-(azetidin-1-yl)propan-2-yl]-3-{2-[(3-chloro-1-methyl-1H-indol-5-yl)amino]pyrimidin-4-yl}-1-methyl-1H-pyrazole-5-carboxamide], the IC50 is below 0.004 µM.
On to `CC(C)[C@@H](CN1CCC1)NC(=O)c1cc(-c2ccnc(Nc3cc(Cl)cc(Cl)c3)n2)nn1C` [Example 61, N-[(2S)-1-(azetidin-1-yl)-3-methylbutan-2-yl]-3-{2-[(3,5-dichlorophenyl)amino]pyrimidin-4-yl}-1-methyl-1H-pyrazole-5-carboxamide], for which the IC50 turned out to be 0.004 µM.
The same measure for `COc1cccc(Nc2nccc(-c3cc(C(=O)N[C@@H](C)CN4CCCC4)n(C)n3)n2)c1` [Example 70, 3-{2-[(3-methoxyphenyl)amino]pyrimidin-4-yl}-1-methyl-N-[(2S)-1-(pyrrolidin-1-yl)propan-2-yl]-1H-pyrazole-5-carboxamide]: 0.032 µM.
